According to US8765748B2, “Indazolyl, benzimidazolyl, benzotriazolyl substituted indolinone derivatives as kinase inhibitors useful in the treatment of cancer” (University Health Network, priority 2007, dated 2014):
Like-named read-outs stand apart in the source and are kept apart here.

Assays:
[1] = tested on: T47 D breast cancer cell line; assay: Cell growth inhibition, SRB assay, extended panel; assay type: cell-based; conditions: Homo sapiens, T47D; read-out: GI50 on T47D Breast cancer cell line
Experimental: (§1) Breast cancer cells (MCF-7, MDA-MB-468, HCC1954), colon cancer cells (SW620) and lung cancer cells (A549), together with human mammary epithelial primary cells (HMEC), were seeded (1000 to 4000 per 80 μl per well depending on the cell growth rate) into 96 well plates, 24 hours before compound overlay. Compounds were prepared as 10 mM stock solutions in 100% DMSO which were diluted with DMEM (Dulbecco's Modified Eagle's Medium) cell growth Medium (Invitrogen, Burlington, ON, Canada) containing 10% FBS (Fetal Bovine Serum) to concentrations ranging from 50 nM to 250 μM. Aliquots (20 μl) from each concentration were overlaid to 80 μl of the pre-seeded cells in the 96 well plates to make final concentrations of 10 nM to 50 μM. The cells were cultured for 5 days before the Sulforhodamine B assay (SRB) was performed to determine the compound's cell growth inhibition activity.
(§2) Sulforhodamine B (purchased from Sigma, Oakville, ON, Canada) is a water-soluble dye that binds to the basic amino acids of the cellular proteins. Thus, colorimetric measurement of the bound dye provides an estimate of the total protein mass that is related to the cell number. the cells are fixed in situ by gently aspirating off the culture media and adding 50 μl ice cold 10% Tri-chloroacetic Acid (TCA) per well and incubate at 4° C. for 30-60 min, The plates are washed with water five times and allowed to air dry for 5 min. Addition of 50 μl 0.4% (w/v) SRB solution in 1% (v/v) acetic acid to each well and incubatation for 30 min at RT completes the staining reaction. Following staining, plates are washed four times with 1% acetic acid to remove unbound dye and then allowed to air dry for 5 min. The stain is solubilized with 100 μl of 10 mM Tris pH10.5 per well. Absorbance is read at 570 nm.
(§3) The percentage (%) of relative growth inhibition was calculated by comparing to DMSO treated only cells (100%). GI50's were determined for compounds with cytotoxic activity. The GI50 was calculated using GraphPad PRISM software (GraphPad Software, Inc., San Diego, Calif., USA).
In addition to the cell lines tested as described above, selected compounds have been assayed against an extended panel. […] The sulforhodamine B assay (SRB) described above was use to assay test compounds against the extended panel (Table 9).

[2] = tested on: MDA-MB-468 basal breast cancer cell line; assay: Cell growth inhibition, Sulforhodamine B assay (SRB); assay type: cell-based; conditions: Homo sapiens
Experimental: as §1, §2, §3

[3] = tested on: MCF-7 luminal breast cancer cell line; assay: as above; assay type: cell-based; conditions: Homo sapiens
Experimental: as §1, §2, §3

[4] = target: T1, human PLK4 (Homo sapiens, UniProt O00444); assay: PLK4 Inhibition Assay (indirect ELISA); assay type: biochemical; conditions: 15 μM ATP, 4 nM GST-PLK4; read-out: PLK4 IC50 Ranges
T1 construct: amino terminal GST fusion of residues 1-391 of human PLK4; made in house; host or cells: E. coli
T1 sequence (O00444 1-391): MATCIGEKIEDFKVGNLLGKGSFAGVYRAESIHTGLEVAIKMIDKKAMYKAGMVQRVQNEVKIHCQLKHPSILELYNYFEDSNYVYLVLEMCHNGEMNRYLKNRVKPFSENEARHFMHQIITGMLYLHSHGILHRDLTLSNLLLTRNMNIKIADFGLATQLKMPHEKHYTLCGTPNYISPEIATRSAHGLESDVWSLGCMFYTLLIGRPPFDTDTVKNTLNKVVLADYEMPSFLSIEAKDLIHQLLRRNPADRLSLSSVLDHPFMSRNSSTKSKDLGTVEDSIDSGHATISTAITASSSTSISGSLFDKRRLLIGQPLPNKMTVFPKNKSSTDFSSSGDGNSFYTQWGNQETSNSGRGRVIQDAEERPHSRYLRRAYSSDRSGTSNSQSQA
In short: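 Dephosphorylated (lambda phosphatase) GST-PLK4 activity read by indirect ELISA. Compounds were pre-incubated with enzyme for 15 minutes before ATP was added. IC50 came from a non-linear 4-point logistic fit.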

[5] = target: T2, PLK3 (Homo sapiens, UniProt Q9H4B4); assay: PLK3 Inhibition Assay (Z-Lyte); assay type: biochemical; conditions: 100 μM ATP, 21 nM PLK3
T2 construct: purchased Invitrogen PV3812
Experimental: (§4) PLK3 inhibition was determined using the Z-Lyte assay kit from Invitrogen (cat #PV3802). The assay was performed using the recommended manufacturer's instructions with 100 μM ATP and 21 nM PLK3 (Invitrogen cat #PV3812). The % inhibition values were determined according to the manufacturer's directions and IC50 values were obtained using a non-linear 4 point logistic curve fit (XLfit4, IDBS).

[6] = target: T3, Aurora B (Homo sapiens, UniProt Q96GD4); assay: Aurora B Inhibition Assay (Z-Lyte); assay type: biochemical; conditions: for IC50: 128 μM ATP, 28 nM Aurora B, read-out: Aurora B IC50 Ranges
T3 construct: purchased Invitrogen PV3970
Experimental: as §4, with “Aurora B” for “PLK3”, “Invitrogen.” for “Invitrogen (cat #PV3802).”, “128” for “100”, “28” for “21”, “#PV3970).” for “#PV3812).”, “IDBS)” for “IDBS).”

[7] = target: T4, Aurora A (Homo sapiens, UniProt O14965); assay: Aurora A Inhibition Assay (Z-Lyte); assay type: biochemical; conditions: for IC50: 20 μM ATP, 12 nM Aurora A, read-out: Aurora A IC50 Ranges
T4 construct: purchased Invitrogen PV3612
T4 sequence (O14965 1-403): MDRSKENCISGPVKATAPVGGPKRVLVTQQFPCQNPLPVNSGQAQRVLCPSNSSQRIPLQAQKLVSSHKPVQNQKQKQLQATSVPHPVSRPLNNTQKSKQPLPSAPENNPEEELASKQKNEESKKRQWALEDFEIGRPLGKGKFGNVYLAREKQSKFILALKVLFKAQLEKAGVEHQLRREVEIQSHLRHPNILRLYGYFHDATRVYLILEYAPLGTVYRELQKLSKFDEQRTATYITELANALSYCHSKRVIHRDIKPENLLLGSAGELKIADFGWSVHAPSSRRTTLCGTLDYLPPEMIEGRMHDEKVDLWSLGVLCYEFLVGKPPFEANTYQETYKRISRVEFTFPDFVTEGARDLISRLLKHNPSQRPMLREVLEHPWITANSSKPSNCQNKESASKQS
Experimental: as §4, with “Aurora A” for “PLK3”, “Invitrogen.” for “Invitrogen (cat #PV3802).”, “20” for “100”, “12” for “21”, “#PV3612).” for “#PV3812).”, “IDBS)” for “IDBS).”

[8] = tested on: HCC1954 basal breast cancer cell line; assay: Cell growth inhibition, Sulforhodamine B assay (SRB); assay type: cell-based; conditions: Homo sapiens, HCC1954, 120 h, 5 days culture, read-out: Cell Line GI50 Range, HCC-1954
Experimental: as §1, §2, §3

[9] = tested on: A549 lung cancer cells; assay: as above; assay type: cell-based; conditions: Homo sapiens, A549, 120 h, 5 days culture, read-out: Cell Line GI50 Range, A-549
Experimental: as §1, §2, §3

[10] = tested on: SW620 colon cancer cells; assay: as above; assay type: cell-based; conditions: Homo sapiens, SW-620, 120 h, 5 days culture, read-out: Cell Line GI50 Range, SW-620
Experimental: as §1, §2, §3

[11] = target: T5, PLK2 (Homo sapiens, UniProt Q9NYY3); assay: PLK2 Inhibition Assay (Z-Lyte); assay type: biochemical; conditions: for inhibition at 10 µM: 10 μM compound, read-out: PLK2 relative inhibition percentage at a dose of 10 μM
T5 construct: purchased Invitrogen PV4204
Experimental: as §4, with “PLK2” for “PLK3”, “60” for “100”, “133” for “21”, “#PV4204).” for “#PV3812).”, “IDBS)” for “IDBS).”

[12] = target: T6, PLK1 (Homo sapiens, UniProt P53350); assay: PLK1 Inhibition Assay (Z-Lyte); assay type: biochemical; conditions: 25 μM ATP, 8 nM PLK1; read-out: PLK1 IC50 Ranges
T6 construct: purchased Invitrogen PV3501
Experimental: PLK1 inhibition was determined using the Z-Lyte assay kit from Invitrogen (cat #PV3802). […] The % inhibition values were determined according to the manufacturer's directions and IC50 values were obtained using a non-linear 4 point logistic curve fit (XLfit4, IDBS)

[13] = MDA-MB-468, 120 h, 5 days culture, SRB, read-out: Cell Line GI50 Range, MDA-MB-468
[14] = MCF7, 120 h, 5 days culture, SRB, read-out: Cell Line GI50 Range, MCF-7

T2 sequence (Q9H4B4 whole entry): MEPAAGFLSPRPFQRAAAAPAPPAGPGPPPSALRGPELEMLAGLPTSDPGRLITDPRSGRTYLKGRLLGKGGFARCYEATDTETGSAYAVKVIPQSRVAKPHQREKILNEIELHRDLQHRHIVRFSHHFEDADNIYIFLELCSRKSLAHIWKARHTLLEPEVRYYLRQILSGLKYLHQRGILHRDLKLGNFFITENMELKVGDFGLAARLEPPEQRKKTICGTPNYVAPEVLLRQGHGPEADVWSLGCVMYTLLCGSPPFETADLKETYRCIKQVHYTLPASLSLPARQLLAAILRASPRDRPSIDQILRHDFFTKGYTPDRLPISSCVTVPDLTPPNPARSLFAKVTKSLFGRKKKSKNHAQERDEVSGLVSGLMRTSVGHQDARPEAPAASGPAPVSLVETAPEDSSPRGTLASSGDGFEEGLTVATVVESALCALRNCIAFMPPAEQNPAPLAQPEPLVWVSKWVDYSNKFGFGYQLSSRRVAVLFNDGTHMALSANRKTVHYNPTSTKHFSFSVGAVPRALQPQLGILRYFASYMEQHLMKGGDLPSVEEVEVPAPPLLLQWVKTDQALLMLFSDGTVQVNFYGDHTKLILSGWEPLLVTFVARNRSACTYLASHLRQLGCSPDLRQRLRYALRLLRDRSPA
T3 sequence (Q96GD4 whole entry): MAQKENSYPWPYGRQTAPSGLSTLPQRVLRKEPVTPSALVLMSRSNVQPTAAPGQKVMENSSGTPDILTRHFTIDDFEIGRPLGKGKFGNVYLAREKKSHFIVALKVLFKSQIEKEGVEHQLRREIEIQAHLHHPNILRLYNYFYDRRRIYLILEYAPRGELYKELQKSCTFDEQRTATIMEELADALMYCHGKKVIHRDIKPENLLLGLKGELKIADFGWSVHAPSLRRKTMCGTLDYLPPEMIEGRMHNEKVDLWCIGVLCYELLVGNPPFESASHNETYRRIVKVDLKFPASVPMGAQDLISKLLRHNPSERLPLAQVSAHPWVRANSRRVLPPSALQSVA
T5 sequence (Q9NYY3 whole entry): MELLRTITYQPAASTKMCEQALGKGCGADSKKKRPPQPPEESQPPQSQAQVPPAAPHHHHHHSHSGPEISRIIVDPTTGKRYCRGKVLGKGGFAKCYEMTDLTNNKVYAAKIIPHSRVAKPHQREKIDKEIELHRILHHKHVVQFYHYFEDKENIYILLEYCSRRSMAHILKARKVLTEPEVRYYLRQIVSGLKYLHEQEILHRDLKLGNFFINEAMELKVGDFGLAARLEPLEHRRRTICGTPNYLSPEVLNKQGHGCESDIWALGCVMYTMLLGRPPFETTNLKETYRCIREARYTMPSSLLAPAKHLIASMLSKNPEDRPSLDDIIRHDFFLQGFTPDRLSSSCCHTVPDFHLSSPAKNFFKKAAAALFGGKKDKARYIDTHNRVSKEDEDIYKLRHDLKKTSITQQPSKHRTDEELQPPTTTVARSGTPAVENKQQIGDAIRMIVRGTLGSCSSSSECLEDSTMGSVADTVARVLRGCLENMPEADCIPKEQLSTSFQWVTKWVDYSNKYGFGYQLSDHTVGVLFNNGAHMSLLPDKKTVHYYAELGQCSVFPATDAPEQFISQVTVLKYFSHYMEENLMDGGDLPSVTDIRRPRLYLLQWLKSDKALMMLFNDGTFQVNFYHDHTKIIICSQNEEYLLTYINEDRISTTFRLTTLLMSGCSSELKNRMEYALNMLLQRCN
T6 sequence (P53350 whole entry): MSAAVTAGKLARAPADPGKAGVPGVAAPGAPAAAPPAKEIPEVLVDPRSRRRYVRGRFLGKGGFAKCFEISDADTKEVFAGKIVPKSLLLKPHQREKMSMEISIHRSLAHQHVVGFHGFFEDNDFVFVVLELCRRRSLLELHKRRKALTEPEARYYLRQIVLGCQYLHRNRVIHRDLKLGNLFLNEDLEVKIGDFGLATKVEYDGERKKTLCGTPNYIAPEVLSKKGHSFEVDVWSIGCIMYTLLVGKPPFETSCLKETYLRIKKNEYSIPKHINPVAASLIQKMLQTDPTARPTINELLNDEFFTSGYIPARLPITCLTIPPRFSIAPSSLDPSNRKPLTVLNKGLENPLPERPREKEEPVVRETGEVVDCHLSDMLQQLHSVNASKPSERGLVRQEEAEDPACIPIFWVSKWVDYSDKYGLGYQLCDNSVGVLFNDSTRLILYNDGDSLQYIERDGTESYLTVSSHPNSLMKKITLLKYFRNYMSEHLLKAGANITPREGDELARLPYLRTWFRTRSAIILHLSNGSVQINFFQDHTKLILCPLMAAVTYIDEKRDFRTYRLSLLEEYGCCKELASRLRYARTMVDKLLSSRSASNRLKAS

Row | Structure (SMILES) | IC50 [4] | IC50 [5] | IC50 [6] | IC50 [7] | IC50 [12] | also measured
1 | O=C(O)/C=C/c1n[nH]c2cc(/C=C3/C(=O)Nc4ccccc43)ccc12 [Example A70, (E)-3-(6-((E)-(2-oxoindolin-3-ylidene)methyl)-1H-indazol-3-yl)acrylic acid] | < 5 µM |  |  |  |  | GI50 [1]: > 50 µM; GI50 ([2]; MDA-MB-468, read-out: GI50 on MDA-MB-468 Breast cancer cell line): > 50 µM; GI50 ([3]; MCF7, read-out: GI50 on MCF-7 Breast cancer cell line): > 50 µM
2 | COc1ccc2c(c1)/C(=C\c1ccc3c(C#Cc4cccnc4)n[nH]c3c1)C(=O)N2 [Example A148, (E)-5-methoxy-3-((3-(pyridin-3-ylethynyl)-1H-indazol-6-yl)methylene)indolin-2-one] | < 5 µM | > 0.5 µM | < 5 µM |  |  | 
3 | CC(C)c1ccc2c(c1)/C(=C\c1ccc3c(/C=C/c4ccncc4)n[nH]c3c1)C(=O)N2 [Example A127, (E)-5-isopropyl-3-((3-((E)-2-(pyridin-4-yl)vinyl)-1H-indazol-6-yl)methylene)indolin-2-one 2,2,2-trifluoroacetate] | < 5 µM | > 0.5 µM | < 5 µM | < 5 µM |  | GI50 [2, 13]: < 5 µM; GI50 [8]: < 5 µM; GI50 [3, 14]: < 5 µM; GI50 [9]: 5 to 20 µM; GI50 [10]: < 5 µM
4 | CC(=O)Nc1cccc2c1NC(=O)/C2=C/c1ccc2cn[nH]c2c1 [Example A49, (E)-N-(3-((1H-indazol-6-yl)methylene)-2-oxoindolin-7-yl)acetamide] | < 5 µM | > 0.5 µM |  |  | > 50 µM | inhibition at 10 µM [11]: > 50%
5 | CC(C)NC(=O)Nc1ccc2c(c1)/C(=C\c1ccc3cn[nH]c3c1)C(=O)N2 [Example A26, (E)-1-(3-((1H-indazol-6-yl)methylene)-2-oxoindolin-5-yl)-3-isopropylurea] | < 5 µM | > 0.5 µM |  | < 5 µM | 5 to 50 µM | inhibition at 10 µM [11]: < 50%; inhibition at 10 µM ([6]; 10 μM compound, read-out: Aurora B relative inhibition percentage at a dose of 10 μM): < 50%
6 | Nc1ccc2c(c1)/C(=C\c1ccc3[nH]nnc3c1)C(=O)N2 [Example A2, (E)-3-((1H-benzo[d][1,2,3]triazol-5-yl)methylene)-5-aminoindolin-2-one] | < 5 µM | > 0.5 µM | < 5 µM | < 5 µM | 5 to 50 µM | inhibition at 10 µM [11]: < 50%; GI50 [2, 13]: 5 to 20 µM; GI50 [3, 14]: > 50 µM
7 | COc1ccc2c(c1)C(=Cc1ccc3c(-c4cccc(-c5nnn[nH]5)c4)n[nH]c3c1)C(=O)N2 (mixture of isomers) [Example A153, (E and Z)-3-((3-(3-(1H-tetrazol-5-yl)phenyl)-1H-indazol-6-yl)methylene)-5-methoxyindolin-2-one] | < 5 µM | > 0.5 µM | < 5 µM | < 5 µM |  | 

Now from value to molecule, other results behind:

Row | IC50 [4] | IC50 [5] | IC50 [6] | IC50 [7] | IC50 [12] | Structure (SMILES) | also measured
8 | < 5 µM | > 0.5 µM | < 5 µM |  |  | Cc1ccc2c(c1)/C(=C\c1ccc3c(/C=C/C(=O)N(C)CCN(C)C)n[nH]c3c1)C(=O)N2 [Example A125, (E and Z)—N-(2-(dimethylamino)ethyl)-N-methyl-3-(6-((E)-(5-methyl-2-oxoindolin-3-ylidene)methyl)-1H-indazol-3-yl)acrylamide] | inhibition at 10 µM ([7]; 10 μM compound, read-out: Aurora A relative inhibition percentage at a dose of 10 μM): > 50%
9 | < 5 µM | > 0.5 µM | < 5 µM | < 5 µM | 5 to 50 µM | O=C1Nc2ccccc2/C1=C\c1ccc2[nH]ncc2c1 [Example A6, (E)-3-((1H-indazol-5-yl)methylene)indolin-2-one] | IC50 ([11]; 60 μM ATP, 133 nM PLK2, read-out: PLK2 IC50 Ranges): < 5 µM; GI50 [2, 13]: 5 to 20 µM; GI50 [3, 14]: 5 to 20 µM
10 | < 5 µM | > 0.5 µM | 5 to 50 µM |  |  | CN1CCN(c2ncc(-c3n[nH]c4cc(C=C5C(=O)Nc6ccc(OC(F)(F)F)cc65)ccc34)cn2)CC1 [Example A152, (E & Z)-3-((3-(2-(4-methylpiperazin-1-yl)pyrimidin-5-yl)-1H-indazol-6-yl)methylene)-5-(trifluoromethoxy)indolin-2-one] | 
11 | < 5 µM | > 0.5 µM | < 5 µM | 5 to 50 µM |  | CN(C)c1ccc(C#Cc2n[nH]c3cc(C=C4C(=O)Nc5ccccc54)ccc23)cc1 (mixture of isomers) [Example A149, (E and Z)-3-((3-((4-(dimethylamino)phenyl)ethynyl)-1H-indazol-6-yl)methylene)indolin-2-one] | 
